# Test results as given in paper PMC6223132 (Journal of controlled release : official journal of the …, 2018).
# What was measured:
# [1] = tested on: aerosolized F. novicida U112; type: in vivo, C57Bl/6 mice; details: n=8
# [2] = tested on: Francisella tularensis; details: cited from earlier work
# [3] = In vivo pharmacokinetics and biodistribution of drugamer-released ciprofloxacin; details: single dose 20 mg/kg intratracheal, over 2 h
smiles,measurement,setting,value
"O=C(O)c1cn(C2CC2)c2cc(N3CCNCC3)c(F)cc2c1=O [free ciprofloxacin, ciprofloxacin]",survival rate,[1],0%
same,MIC,[2],0.03 µg/mL
same,elimination from the lungs,[3],rapid elimination
